Data: article PMC5740381 (Antimicrobial Agents and Chemotherapy, 2017)

Key:
HIV-1 pNL4-3 = experiment: HIV-1 5-day cytoprotection assay in MT4 cells; assay type: cell-based, human immunodeficiency virus type 1; settings: Human immunodeficiency virus 1, HIV-1 pNL4-3 infectivity, HIV-1 PI alone
Procedure: . […]. The plates were incubated at 37°C for 5 days. After this period, 25 μl MTT reagent (4 mg/ml) was added to the cells, and the plates were incubated for 4 h. The MTT formazan formed in the cells was solubilized by 50 μl of acidified SDS overnight. The plates were read at wavelengths of 570 and 650 nm using a spectrophotometer. […]

GT3a / 3a Wild type [1] = system: T1, GT3a / 3a Wild type; experiment: Luciferase reporter assay of HCV replication in stable subgenomic replicon cells, 5% fetal bovine serum, no human plasma (at least 3 experiments).; assay type: cell-based, Huh-7; settings: SD, n = 3; read-out: HCV stable replicons in 0% human plasma, Mean EC50 ± SD
T1 construct: NS3 N-terminal region in chimeric replicon
From the text: (§1) . Five of these nine cell lines have been described previously, including those transfected with genotypes 1a H77, 1b Con1, 3a, 4a, and 6a ([28]). The other four cell lines were established by transfecting cells with a nonchimeric genotype 2a JFH-1 replicon (GenBank accession number AB047639), two genotype 2a JFH-1 chimeric replicons containing either a genotype 2b NS3 protease domain (N-terminal 251 amino acids) or a sequence encoding full-length NS3 through the first 39 amino acids of NS5B from genotype 5a (strain SA13), and one chimeric replicon with a genotype 1b Con1 backbone containing full-length NS3 and NS4A sequences from genotype 6e. The genotype 2b and 6e NS3 sequences were each synthetically constructed based on a consensus sequence derived from the alignment of 15 genotype 2b and 4 genotype 6e sequences, respectively. All replicon constructs were bicistronic subgenomic replicons similar to those described by Bartenschlager and coworkers, and the replicon cell lines were generated by introducing these constructs into cells of an Huh-7 human hepatoma-derived cell line ([50]). The inhibitory effect of the PIs on HCV replication in replicon cells was determined in Dulbecco's modified Eagle medium containing 5% fetal bovine serum with or without 40% human plasma (Bioreclamation, Westbury, NY). The EC50s were determined using nonlinear regression curve fitting as described previously ([33]).

GT4a / 4a Wild type [2] = system: T2, GT4a / 4a Wild type; experiment: as above; assay type: cell-based, Huh-7; settings: SD, n = 3; read-out: HCV stable replicons in 0% human plasma, Mean EC50 ± SD
T2 construct: NS3 N-terminal region in chimeric replicon
From the text: as §1

GT6a / 6a Wild type [3] = system: T3, GT6a / 6a Wild type; experiment: as above; assay type: cell-based, Huh-7; settings: SD, n = 3; read-out: HCV stable replicons in 0% human plasma, Mean EC50 ± SD
T3 construct: NS3 N-terminal region in chimeric replicon
From the text: as §1

GT6e = system: T4, GT6e; experiment: as above; assay type: cell-based, Huh-7; settings: SD, n = 3; read-out: HCV stable replicons in 0% human plasma, Mean EC50 ± SD
T4 construct: full-length NS3 and NS4A in genotype 1b Con1 chimeric replicon
From the text: as §1

GT2b / 2b Wild type = molecular target: T5, GT2b / 2b Wild type; experiment: Luciferase assay of HCV replication in transient-transfection replicons with wild-type or substituted NS3 (at least 3 transfections).; assay type: cell-based, Huh-7; settings: SD, n = 3
T5 construct: NS3 protease domain (N-terminal 251 aa) in genotype 2a JFH-1 chimeric replicon

GT3a / 3a Wild type [4] = molecular target: T1, GT3a / 3a Wild type; experiment: as above; assay type: cell-based, Huh-7; settings: SD, n = 3
GT4a / 4a Wild type [5] = molecular target: T2, GT4a / 4a Wild type; experiment: as above; assay type: cell-based, Huh-7; settings: SD, n = 3
GT6a / 6a Wild type [6] = molecular target: T3, GT6a / 6a Wild type; experiment: as above; assay type: cell-based, Huh-7; settings: SD, n = 3
4d Wild type = molecular target: T6, 4d Wild type; experiment: as above; assay type: cell-based, Huh-7; settings: SD, n = 3
T6 construct: NS3 in transient replicon

2b A156T = molecular target: T7, 2b A156T; experiment: as above; assay type: cell-based, Huh-7; settings: SD, n = 3
T7 construct: in genotype 2a JFH-1 chimeric transient replicon

2b A156V = molecular target: T8, 2b A156V; experiment: as above; assay type: cell-based, Huh-7; settings: SD, n = 3
T8 construct: in genotype 2a JFH-1 chimeric transient replicon

2b D168A = molecular target: T9, 2b D168A; experiment: as above; assay type: cell-based, Huh-7; settings: SD, n = 3
T9 construct: in genotype 2a JFH-1 chimeric transient replicon

2b D168E = molecular target: T10, 2b D168E; experiment: as above; assay type: cell-based, Huh-7; settings: SD, n = 3
T10 construct: in genotype 2a JFH-1 chimeric transient replicon

2b D168V = molecular target: T11, 2b D168V; experiment: as above; assay type: cell-based, Huh-7; settings: SD, n = 3
T11 construct: in genotype 2a JFH-1 chimeric transient replicon

3a A156G = molecular target: T12, 3a A156G; experiment: as above; assay type: cell-based, Huh-7; settings: SD, n = 3
T12 construct: in chimeric transient replicon

3a Q168R = molecular target: T13, 3a Q168R; experiment: as above; assay type: cell-based, Huh-7; settings: SD, n = 3
T13 construct: in chimeric transient replicon

4a R155C = molecular target: T14, 4a R155C; experiment: as above; assay type: cell-based, Huh-7; settings: SD, n = 3
T14 construct: in chimeric transient replicon

4a A156T = molecular target: T15, 4a A156T; experiment: as above; assay type: cell-based, Huh-7; settings: SD, n = 3
T15 construct: in chimeric transient replicon

4a A156V = molecular target: T16, 4a A156V; experiment: as above; assay type: cell-based, Huh-7; settings: SD, n = 3
T16 construct: in chimeric transient replicon

4a D168H = molecular target: T17, 4a D168H; experiment: as above; assay type: cell-based, Huh-7; settings: SD, n = 3
T17 construct: in chimeric transient replicon

4a D168V = molecular target: T18, 4a D168V; experiment: as above; assay type: cell-based, Huh-7; settings: SD, n = 3
T18 construct: in chimeric transient replicon

4d D168V = settings: read-out: Mean EC50 ± SD, n = 3
Procedure: Mutagenesis was performed using a Change-IT multiple-mutation site-directed mutagenesis kit (USB, Cleveland, OH) or by cloning a synthesized DNA fragment encoding the amino acid substitution(s). The genotype 1a and 1b replicon shuttle vectors used for the introduction of the substitutions of interest in the NS3, NS5A, or NS5B gene for transient-transfection assays have been described previously ([28], [33]). The replicon shuttle vectors used for the introduction of substitutions in NS3 genes from other genotypes were similar to the stable replicon cell line constructs described above, except for the absence of the neo gene. After mutagenesis, the plasmids were linearized and RNA was transcribed and then used to transfect Huh-7 cells. Inhibition of HCV replication by the HCV inhibitors was measured by luciferase assay, as described above. Replication efficiency was calculated as a percentage of wild-type replication, as described previously ([28]).

6a D168A = molecular target: T19, 6a D168A; experiment: Luciferase assay of HCV replication in transient-transfection replicons with wild-type or substituted NS3 (at least 3 transfections).; assay type: cell-based, Huh-7; settings: SD, n = 3
T19 construct: in chimeric transient replicon

6a D168H = molecular target: T20, 6a D168H; experiment: as above; assay type: cell-based, Huh-7; settings: SD, n = 3
T20 construct: in chimeric transient replicon

6a D168V = molecular target: T21, 6a D168V; experiment: as above; assay type: cell-based, Huh-7; settings: SD, n = 3
T21 construct: in chimeric transient replicon

[7] = system: genotype 1b Con1 replicon cells; experiment: Checkerboard combination assay (MacSynergy II); assay type: cell-based, Hepatitis C virus
Procedure: […]. The resulting data were analyzed using the MacSynergy II program ([34], [51], [52]). The assignment of the synergy or antagonism volumes was based on the guidelines provided in the MacSynergy II program user's manual ([34]).

CC(C)CN(C[C@@H](O)[C@H](Cc1ccccc1)NC(=O)O[C@H]1CO[C@H]2OCC[C@H]21)S(=O)(=O)c1ccc(N)cc1 [Darunavir] showed an EC50 (HIV-1 pNL4-3) of 10 nM.
For C=C[C@@H]1C[C@]1(NC(=O)[C@@H]1C[C@@H]2CN1C(=O)[C@H](C(C)(C)C)NC(=O)O[C@@H]1C[C@H]1CCCCCc1nc3ccc(OC)cc3nc1O2)C(=O)NS(=O)(=O)C1CC1 [Grazoprevir, grazoprevir (MK-5172)], the EC50 (GT3a / 3a Wild type [1]) was 83 ± 18 nM, the EC50 (GT4a / 4a Wild type [2]) was 1.2 ± 0.31 nM and the EC50 (GT6a / 6a Wild type [3]) was 0.89 ± 0.32 nM. It also gave an EC50 (GT6e) of 0.25 ± 0.01 nM, an EC50 (GT2b / 2b Wild type) of 6.1 ± 1.3 nM and an EC50 (GT3a / 3a Wild type [4]) of 47 ± 14 nM. For the same compound, the EC50 (GT4a / 4a Wild type [5]) was 0.28 ± 0.04 nM, the EC50 (GT6a / 6a Wild type [6]) was 0.1 ± 0.02 nM and the EC50 (4d Wild type) was 0.18 ± 0.01 nM. The EC50 (2b A156T) was 1560 nM, the EC50 (2b A156V) was 2890 nM and the EC50 (2b D168A) was 347 ± 113 nM. It also gave an EC50 (2b D168E) of 35 ± 6 nM, an EC50 (2b D168V) of 88 ± 19 nM and an EC50 (3a A156G) of 614 ± 148 nM. The EC50 (3a Q168R) was 165 ± 46 nM, the EC50 (4a R155C) was 2 ± 0.27 nM and the EC50 (4a A156T) was 296 ± 22 nM. It also gave an EC50 (4a A156V) of 169 ± 27 nM, an EC50 (4a D168H) of 25 ± 6.3 nM and an EC50 (4a D168V) of 13 ± 1.1 nM. It also gave an EC50 (4d D168V) of 2.5 ± 0.08 nM, an EC50 (6a D168A) of 103 ± 34 nM and an EC50 (6a D168H) of 45 ± 4.1 nM. The EC50 (6a D168V) was 24 ± 1.2 nM.
Cc1cccc(C)c1OCC(=O)N[C@@H](Cc1ccccc1)[C@@H](O)C[C@H](Cc1ccccc1)NC(=O)[C@H](C(C)C)N1CCCNC1=O [Lopinavir] was tested, and the EC50 (HIV-1 pNL4-3) was 23 nM.
Compound NC(=O)c1ncn([C@@H]2O[C@H](CO)[C@@H](O)[C@H]2O)n1 [RBV, reference compound] has an EC50 ([7]; Hepatitis C virus) of 19000 nM.
With IFN-α the EC50 ([7]; genotype 1b replicon cells) was 1.2 IU/ml.
